# In US20260035452A1 (THE UNIVERSITY OF BIRMINGHAM, priority 2022, published 2026):
# No end group written: not given here.
# Legend:
# [1] = system: neutrophils; test: Transwell chemotaxis assay; assay type: cell-based, human
# Experimental: The cells migration after IL-17 (10-500 ng/ml), FM-0410 (10-500 ng/ml) or N-Formylmethionine-leucyl-phenylalanine (fmlp; 10^−6 M) treatment was quantified using CountBright™ Absolute Counting Beads. Data were presented as means±S.D. of n=3 healthy donors. Statistical analysis was conducted by one-way ANOVA followed by Bonferroni's for multiple comparisons. ^#P≤0.05, ^##P≤0.01, ^###P≤0.001, ^####P≤0.0001 vs Ctrl group; ^+P≤0.05 vs IL-17. Neutrophil isolation: Blood was taken according to local research ethics committee approval (QMERC2014/61). Informed consent was provided according to the Declaration of Helsinki. All blood samples were collected on the day of experiments from healthy donors and immediately used. Each condition has 3 biological replicates (3 different donors). Neutrophils were isolated using a double density histopaque gradient and hypotonic lysis as described previously. Transwell chemotaxis assay: Chemotaxis was assessed using a transwell assay. […] After 2 hours at 37° C., neutrophils were collected from the bottom wells and quantified by flow cytometry using CountBright™ Absolute Counting Beads (Thermofisher, Rugby, UK) as previously described.
# [2] = system: Human dermal blood endothelial cells (HDBEC); test: HDBEC stimulation (flow cytometry, IL-6 Elisa); assay type: cell-based; conditions: 24 h
# Experimental: FIG. 10: Human dermal blood endothelial cells (HDBEC) were treated with: IL-17 vehicle (Ctrl), IL-17 or FM-0410 (100 ng/ml), alone or in combination with TNF-α (100 U/ml) for 24 h. Cells were washed, gated in their totality and singlet before the identification of IL-17Rs (RA and RC) (A, B), ICAM (C) and VCAM (D) expression. Histogram values (expressed as MIF) indicate the total positive cells (A-D). In (E) are shown phase-contrast micrographs of confluent monolayers of untreated or treated (as reported before) HDBEC. Total adhesion (expressed as INT/mm^2, F) and % of transmigration (G) are calculated with Image Pro programme (DataCell, Finchampstead). Inflammatory supernatants from all experimental conditions were assayed by Elisa for IL-6 (H) expressed in pg/ml. Data were presented as means±S.D. of n=3 healthy donors. Statistical analysis was conducted by one-way ANOVA followed by Bonferroni's for multiple comparisons. ^#P≤0.05, ^##P≤0.01, ^###P≤0.001, ^####P≤0.0001 vs Ctrl group; *P≤0.05 vs TNF-α+IL-17 group; ^∘P≤0.05, ^∘∘∘P≤0.001, ^∘∘∘∘P≤0.0001 vs TNF-α group.
# Human dermal blood endothelial cells (HDBEC): Primary human dermal blood endothelial cells (HDBECs) were purchased from PromoCell and cultured in the manufacturer's recommended endothelial cell growth medium MV (PromoCell, Heidelberg, Germany). HDBECs were seeded onto 12-well tissue culture plates after 4 passages at a seeding density yielding confluent monolayers. HDBEC monolayers were washed in endothelial cell growth medium MV warmed to 37° C. and stimulated with IL-17 or FM-0410 (100 ng/ml) alone or in a combination with TNF-α (100 U/ml) for 24 h at 37° C. Cells were stimulated for 24 h, before staining with IL-17Rs (RA or RC) or ICAM/VCAM adhesion receptors using a Flow cytometry assay. Supernatants were collected and measured to evaluate IL-6 or TNF-α levels.
# Flow Cytometry: HDBEC, collected after 24 h of treatment, were washed with PBS without Ca^2+ and Mg^2+ containing 25 mM lactose for 20 min at room temperature with occasional mixing. Cells were, then, incubated with FcR blocking agents (Miltenyi) in PBS without Ca^2+ and Mg^2+ containing lactose before staining cells with antibodies IL-17 Receptor A (1:100; clone 133617) and IL-17 Receptor C (1:100; clone 309822). Moreover, HDBEC cells were also stained with ICAM (BBIG-V3; 1:50, APC, BD Biosciences) and VCAM (3E2; 1:50, FITC, BD Biosciences). Protein expression was analysed by flow cytometry on a Dako CyAn (Beckman Coulter, High Wycombe, U.K.), and data were analysed using MRFIow and FlowJo software operation. The unspecific binding of antibodies was quantified by using corresponding isotype controls.
# Elisa assay: The levels of IL-6 at 24 h were measured using commercially available enzyme-linked immunosorbent assay kits (ELISA kit, R&D System, Milan, Italy) according to the manufacturer's instructions. Briefly, 100 μl of supernatants, diluted standards, quality controls, and dilution buffer (blank) were applied on a plate with the monoclonal antibody for 2 h. After washing, 100 μl of biotin-labeled antibody was added and incubation continued for 1 h. […] The addition of 100 μl of the substrate and stop solution represented the last steps before the reading of absorbance (measured at 450 nm) on a microplate reader. Antigen levels in the samples were determined using a standard curve and expressed as pg/ml.
# [3] = 100 ng/ml in combination with TNF-α (100 U/ml)
substance,measurement,setting,value
Ac-LEKILVSVGATAVTPIVHHVAC [FM-0410],chemotactic activity compared to positive control fmlp (10^−6 M),[1]; 500 ng/ml,almost similar to positive control fmlp
same,chemotactic effect on neutrophils,"[1]; 10-500 ng/ml, vs Control group",concentration-dependent chemotactic effect
same,ICAM expression,[2]; [3],upregulation
same,IL-17RA receptor expression,[2]; [3],No effects
same,IL-17RC receptor expression,[2]; [3],No effects
same,VCAM expression,[2]; [3],upregulation
same,IL-6 levels (marker of cell activation),[2]; peptide co-stimulation with TNF-α,upregulation
